This passage reports Activity, EC50 and Ratio results from ChEMBL document CHEMBL1142865, “22-Alkyl-20-epi-1alpha,25-dihydroxyvitamin D3 compounds of superagonistic activity: syntheses, biological activities and interaction with the receptor” (J Med Chem, 2007).

Experiment [1] concerns Rattus norvegicus. Description: Effect on bone calcium mobilization in low-calcium diet fed rat at 325 pmol/day, ip after 7 days. It counts as functional.
Experiment [2] relates to Rattus norvegicus. As to the kind of experiment: Effect on bone calcium mobilization in low-calcium diet fed rat at 100 pmol/day, ip after 7 days. The format is functional.
For experiment [3], the system named is HL-60. As to the kind of experiment: Induction of human HL60 cell differentiation to monocytes by NBT reduction assay. It counts as functional, cell-based.
Experiment [4] addresses T1, Vitamin D3 receptor (Bos taurus, UniProt Q28037).
T1 sequence (Q28037 whole entry): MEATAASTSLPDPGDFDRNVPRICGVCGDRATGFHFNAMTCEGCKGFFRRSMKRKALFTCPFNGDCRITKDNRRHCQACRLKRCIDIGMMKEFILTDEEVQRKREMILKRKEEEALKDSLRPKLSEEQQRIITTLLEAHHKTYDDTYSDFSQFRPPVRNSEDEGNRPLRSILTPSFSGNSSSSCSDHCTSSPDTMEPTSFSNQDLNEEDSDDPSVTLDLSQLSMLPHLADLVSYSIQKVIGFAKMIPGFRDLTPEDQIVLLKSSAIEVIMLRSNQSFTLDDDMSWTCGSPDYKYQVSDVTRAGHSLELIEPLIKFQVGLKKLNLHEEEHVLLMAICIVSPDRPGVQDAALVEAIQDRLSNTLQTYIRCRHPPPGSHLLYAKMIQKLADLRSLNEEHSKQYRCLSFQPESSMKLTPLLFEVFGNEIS
Description: Displacement of [3H]1,25-(OH)2D3 from vitamin D receptor in bovine thymus. Background: In a radioligand displacement assay an active substance lowers the binding of a labelled ligand.

Experiment [5] concerns the target T2, Vitamin D3 receptor (Homo sapiens, UniProt P11473).
T2 sequence (P11473 whole entry): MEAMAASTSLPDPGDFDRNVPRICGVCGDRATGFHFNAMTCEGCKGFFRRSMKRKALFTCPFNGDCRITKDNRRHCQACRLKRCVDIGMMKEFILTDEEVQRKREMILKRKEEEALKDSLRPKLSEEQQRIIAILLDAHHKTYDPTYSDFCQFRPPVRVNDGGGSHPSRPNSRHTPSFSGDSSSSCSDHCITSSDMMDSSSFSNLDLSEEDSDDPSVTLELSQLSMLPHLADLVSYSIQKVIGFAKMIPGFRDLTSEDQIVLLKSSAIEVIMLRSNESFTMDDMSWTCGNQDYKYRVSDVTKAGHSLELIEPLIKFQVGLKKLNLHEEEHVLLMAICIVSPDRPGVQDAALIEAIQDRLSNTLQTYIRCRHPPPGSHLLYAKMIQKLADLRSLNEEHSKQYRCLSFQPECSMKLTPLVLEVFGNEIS
As to the kind of experiment: Induction of transactivation of human VDR responsive gene in COS7 cells by rat osteopontin luciferase reporter gene assay. The format is cell-based, COS-7. Background: A reporter such as luciferase makes a cellular process visible.

Experiment [6] deals with Rattus norvegicus. As to the kind of experiment: Effect on bone calcium mobilization in low-calcium diet fed rat assessed by measuring at 650 pmol/day, ip after 7 days. It counts as functional.
Experiment [7] relates to Rattus norvegicus. As to the kind of experiment: Effect on intestinal calcium transport in low-calcium diet fed rat assessed as serosal:mucosal ratio of calcium at 100 pmol/day, ip after 7 days. The format is functional.
Experiment [8] relates to Rattus norvegicus. Description: Effect on intestinal calcium transport in low-calcium diet fed rat assessed as serosal:mucosal ratio of calcium at 650 pmol/day, ip after 7 days. It counts as functional.
For experiment [9], the system named is Rattus norvegicus. As to the kind of experiment: Effect on intestinal calcium transport in low-calcium diet fed rat assessed as serosal:mucosal ratio of calcium at 325 pmol/day, ip after 7 days. The format is functional.

In the case of `C=C1/C(=C\C=C2/CCC[C@]3(C)[C@@H]([C@H](C)CCCC(C)(C)O)CC[C@@H]23)C[C@@H](O)C[C@@H]1O` [CALCITRIOL], the Activity in experiment [1] turned out to be 5.5; in [2], 4.6.
`C=C1/C(=C\C=C2/CCC[C@@]3(C)C2CC[C@@H]3[C@@H](C)[C@H](CCCC)CCC(C)(C)O)C[C@@H](O)C[C@@H]1O` (stereo partly drawn): the concentration for a half-maximal effect (EC50) in experiment [3] was 1.05 nM; in experiment [4] it was 0.89 nM; in experiment [5] it was 0.2 nM.
Take `C=C1/C(=C\C=C2/CCC[C@@]3(C)C2CC[C@@H]3[C@@H](C)[C@H](CC)CCC(C)(C)O)C[C@@H](O)C[C@@H]1O` (stereo partly drawn): the Activity in [6] is reported as 6.2; in experiment [1], 5; in experiment [2] it was 3.9. The EC50 is 0.057 nM in experiment [3], 0.018 nM in experiment [4] and 0.002 nM in experiment [5]. The Ratio in experiment [7] turned out to be 5.7; in [8], 8.5; in experiment [9] it was 6.3.
For `C=C1/C(=C\C=C2/CCC[C@@]3(C)C2CC[C@@H]3[C@@H](C)[C@H](C)CCC(C)(C)O)C[C@@H](O)C[C@@H]1O` (stereo partly drawn), the Activity in experiment [6] is 8.4; in experiment [1], 8.1; in experiment [2], 5. The figures for the EC50 in experiment [3], in [4] and in experiment [5] were 0.018 nM, 0.031 nM and 0.003 nM, respectively. For the same compound, the Ratio in experiment [7] is recorded as 7; in [8] it was 12.2; in experiment [9], 8.2.

A word on the EC50: it is the concentration giving half of the maximal effect.
